The results in this text go back to patent US20160083420A1, “DERIVATIVES OF DOLASTATIN 10 AND AURISTATINS” (PIERRE FABRE MEDICAMENT, priority 2013, published 2016).

The assay concerns MDA-MB-231 (breast adenocarcinoma—ATCC HTB-26). Description: ATPlite antiproliferative assay on MDA-MB-231 cells. It is filed as cell-based. To be noted: Homo sapiens, MDA-MB-231, 72 h, MDA-MB-231, 72 h drug treatment, values in text, read-out: EC50, antiproliferative activity on the MDA-MB-231 cell line. The protocol: A549 (Non Small Cell Lung Cancer—ATCC CCL-185) and MDA-MB-231 (breast adenocarcinoma—ATCC HTB-26) cells were cultured in Minimum Essential Medium Eagle (MEM) with 5% fetal calf serum (FCS) and Dulbecco's modified Eagle Medium (DMEM) with 10% FCS respectively. MCF7 (breast ductal carcinoma—ATCC HTB-22) and SN-12C (kidney carcinoma—ATCC) cells were maintained in RPMI1640 medium (without phenol red for MCF7 cells) containing 10% FCS. All the media were supplemented with fungizone (1.25 μg/mL) and penicillin-streptomycin (100 U/100 μg/mL). Cells were cultured under standard conditions in an incubator at 37° C., 5% CO2 and 95% atmospheric humidity.
Compounds according to the invention were investigated for their antiproliferative activity using an ATPlite proliferation assay (Perkin Elmer, Villebon sur Yvette, France) on a comprehensive panel of 4 cell lines. […] On day 4, cell viability was evaluated by dosing the ATP released by viable cells. The number of viable cells was analyzed in comparison with the number of solvent treated cells. The EC50 values were determined with curve fitting analysis (non linear regression model with a sigmoidal dose response, variable hill slope coefficient), performed with the algorithm provided by the GraphPad Software (GraphPad Software Inc., CA, USA).

Each structure is given as a SMILES string. Square brackets hold non-standard residues; d marks the D form. Peptide text beside a SMILES is read from it. * marks the point of attachment. Dolaproine = CO[C@@H]([C@@H]1CCCN1)[C@@H](C)C(=O)O; Dil = CC[C@H](C)[C@H](NC)[C@@H](CC(=O)O)OC; X5 = CC(C)[C@@H](C(=O)*)N(C)Cc1ccncc1

Take `CC[C@H](C)[C@@H]([C@@H](CC(=O)N1CCC[C@H]1[C@H](OC)[C@@H](C)C(=O)N[C@@H](Cc1ccccc1)C(=O)OC)OC)N(C)C(=O)[C@@H](NC(=O)[C@H](C(C)C)N(C)Cc1ccncc1)C(C)C` [Example 3] (X5-V[Dil][Dolaproine]F-OMe): the EC50 stood at 0.41 nM.
